According to article PMC4464647, “ANO1 (TMEM16A) in pancreatic ductal adenocarcinoma (PDAC)” (Pflugers Archiv, 2014):

Test system: VRAC
Test: Whole-cell patch-clamp of swelling-activated (VRAC) currents, hypotonic bath, 0 μM Ca2+ pipette
Assay type: cell-based, human
Details: HPDE and BxPC-3 cells, inhibitor 20 μM, Vm = +65 mV
Method: Cells were grown on poly-L-lysine coated coverslips. For knockdown experiments, cells were transfected with siRNA targeting ANO1 or scrambled siRNA shortly after complete attachment of the cells (approx. 3 h after plating). Currents were measured 36–48 h after transfection. Whole-cell patch-clamp recordings were performed using the Axopatch 200B amplifier interfaced to a Digidata 1440A controlled by pClamp10 software (Molecular Devices, USA). Analogue signals were acquired at 2.5 kHz and filtered at 1 kHz. […] An agar bridge made of 3 % agar and 97 % of the bath solution containing NMDG-Cl (below) was used as reference electrode. Current activations were recorded from an output holding potential, V out = 0 mV with ramp protocols spanning from −100 to 100 mV over 1 s and run continuously with 15-s intervals. […] Liquid junction potentials (V lj) were estimated as described in [10] with membrane potentials calculated as, V m = V out − V lj. […] Instantaneous currents were measured 1 ms after each voltage step. […]
One micromolar free Ca^2+ pipette solution include the following (in mM): 100 CsAsp, 40 CsCl, 4.34 CaCl2, 4 Na2ATP, 1 MgCl2, 5 EGTA, 10 HEPES, pH 7.2, osmolality 295 mosmol/kg or 0 μM free Ca^2+ solution containing no CaCl2 and 10 mM EGTA. […] All osmolalities were measured in a Wescor Vapro model 5520 osmometer (Wescor Inc., USA) calibrated by the manufacturer’s Optimol standard solutions. […]

Structure (SMILES)	effect on VRAC currents
CC(C)(C)C1CCc2c(sc(NC(=O)c3ccco3)c2C(=O)O)C1 (centres unmarked) [CaCCinh-A01, 6-(1,1-dimethylethyl)-2-[(2-furanylcarbonyl)amino]-4,5,6,7-tetrahydrobenzo[b]thiophene-3-carboxylic acid]	Neither T16Ainh-A01 nor CaCCinh-A01 inhibited the VRAC currents significantly
CCc1c(C)nc(SCC(=O)Nc2nc(-c3ccc(OC)cc3)cs2)[nH]c1=O [T16Ainh-A01, 2-[(5-Ethyl-1,6-dihydro-4-methyl-6-oxo-2-pyrimidinyl)thio]-N-[4-(4-methoxyphenyl)-2-thiazolyl]acetamide]	Neither T16Ainh-A01 nor CaCCinh-A01 inhibited the VRAC currents significantly
